Entries after “also recorded” stand apart in the source; their conditions may differ. Cf = 5(6)-carboxyfluorescein
Tests used:
Assay type in all cases: cell-based
E. coli 498 [1] = experiment: Bactericidal cell viability assay (CFU after 18 h), E. coli 498
Protocol: (§1) Initial coarse-level growth inhibition assays were carried out with concentrations of peptides up to 200 μM. Further assays of growth rates (bacteriostatic activity) and cell viability (bactericidal activity) were carried out on a finer scale. […] Growth rates were derived from spline-fitted growth curves to optical density (OD) data, while cell viability was assessed by plating cultures and counting colony-forming units after 18 h. Dose–response curves were fitted to both the bacteriostatic and bactericidal data with Markov Chain Monte Carlo parameter optimization (further details in electronic supplementary material). […]
(§2) v) Coarse growth inhibition assays. […]
(§3) The assa ys were carried out in 96-well plates (Griener Bio On e, Frick enh ausen, Germ an y) in an Eon™ Microplate Spectrophotometer (BioTek Instruments, VT, USA) for 16 h while r eco rding of changes in the OD600 at 20- min intervals. […] The AMPs used inthis assay are sh own in Tables S1and S4. vi) Dose response curv e quantif ication […]
(§4) 1.25, 2.5, 5, 10, and 20 μM) in rows, and 10 µl volumes of hymenoptaecin (final concentrations of 0, 0.625, 1.25, 2.5, 5, and 10 μM) in columns. […] Th e OD600 was measured ever y hour for 12 consecutive hours using a SpectraMax M2e microplate reader (Molecular Devices, Sunnyvale, USA). […]
(§5) Cell viability. […] Bacteria were grown for 18 h with AMPs before the number of viable cells was assessed. […]

E. coli 498 [2] = experiment: Bacteriostatic growth-rate dose-response assay, E. coli 498; conditions: abaecin in combination with hymenoptaecin
Protocol: as §1, §2, §3, §4, §5

E. coli JM83 cells = experiment: Atomic force microscopy imaging of bacterial cells; conditions: 20 µM abaecin, 1.5 h, 37°C
Protocol: Bacteria were prepared for imaging as previously described (see electronic supplementary material). The data were analysed with NANOSCOPE […] software v. 1.40 (Veeco, USA). Three fields on each mica disc were imaged. Three-dimensional images and section profiles were prepared using WSXM v. 5.0 software. The roughness values were measured over the entire bacterial cell surface on 3 × 3 µm^2 areas. The average surface root mean square (RMS) roughness was calculated from 25 fields (300 × 300 nm^2). The data were analysed using […] v. 6 (StatSoft, Inc., Tulsa, OK, USA). Statistical significance was determined by ANOVA (Tukey's honestly significant difference test). […]
5 μM h ymenopt aecin. […] Th e cell surface was imaged in Anal ytical Labo rator y, Facult y of Chemistry, UMCS, Lublin, Poland using a NanoScope V AFM (Veeco, USA. All measurements were carri ed out in “Peak Force QNM” mode usin g an NSG 30 silicon tip with a spring constant of 20 N/m (NT-MDT, Russia). The data were an al yzed wi th Nanoscope Anal ysis software v1.40 (Veeco, USA). Three fields on each mica disk were imaged. Three dimensional images and section profiles were prepared using WSxM v5.0 software. The roughness values were measured over the entire bacterial cell surface on 3×3 µm2 areas. The average surface root-mean-square (RMS) roughness was calculated from 25 fields (300×300 nm2). […]

E. coli strain D31 = experiment: Coarse growth inhibition assay, E. coli strain D31
Protocol: as §1
v) Coarse growth inhibition assays.
Bact eria in mid-logarithmic phase were used for all growth inhibition assays. The initial OD600 for all assa ys was set to 0.001 to ensure the full contact of each b acteri al cell with added AMPs.
The assa ys were carried out in 96-well plates (Griener Bio On e, Frick enh ausen, Germ an y) in an Eon™ Microplate Spectrophotometer (BioTek Instruments, VT, USA) for 16 h while r eco rding of changes in the OD600 at 20- min intervals. For each assa y, a control culture was included with medium onl y. The AMPs used inthis assay are sh own in Tables S1and S4. vi) Dose response curv e quantif ication
Growth inhibition assay. E. coli cells (DSM 498) wer e grown in Muller-Hinton broth (Sigma-Aldrich) for 14 h at 30 °C and count ed using a FastRead 102 counting cham ber ( Immune S yst ems, UK). The suspension w as adjusted in fresh mediu m to achieve a cell density of 5 x 104 per 80 µl. […]
as §4
Cell viability. […] Bacteria were grown for 18 h with AMPs before the number of viable cells was assessed. […] Colony-forming units (CFUs), each representing a viable cell from the culture, were counted at a dilution where each individual CFU could be distinguished.

abaecin: proline-rich peptide abaecin, species version not specified at the place (Cf-FVPYNPPRPGQSKPFPSFPGHGPFNPKIQWPYPLPNPGH-NH2)
impact on cell viability, abaecin alone (E. coli 498 [1]; E. coli 498, concentrations tested up to 20 µM, CFU after 18 h): no impact on cell viability | lowest abaecin concentration that enhanced the bactericidal effects of hymenoptaecin (E. coli 498 [1]; E. coli, in combination with hymenoptaecin): 1.25 µM | effect of abaecin on the MIC of hymenoptaecin (E. coli 498 [2]): reduce the minimal inhibitory concentration of hymenoptaecin | cell morphology and surface (AFM), abaecin alone (E. coli JM83 cells): smoother than the control cells; also recorded: granules and grooves were visible although less pronounced, and there were fewer flagella | cell morphology and surface (AFM), abaecin alone (E. coli JM83 cells; listed as Abaecin): no significant impact on gross morphology | antibacterial activity, abaecin alone (E. coli strain D31; E. coli D31, 20 µM (figure 1a) to 200 µM (data not shown), OD600, 16 h): unable to detect any antibacterial activity | antibacterial activity, abaecin alone (E. coli strain D31; E. coli, tested alone at concentrations of up to 200 μM): no detectable activity | impact on bacterial growth or survival, abaecin alone (E. coli strain D31; even at a concentration of 200 µM): no impact on bacterial growth or survival

— publication PMC4426631, “Insect antimicrobial peptides show potentiating functional interactions against Gram-negative bacteria” (Proceedings of the Royal Society B: Biological Sciences, 2015)
